# According to PubChem BioAssay (NCI):
#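 Each compound was tested at five concentrations against cells in 96-well plates for 48 hours. GI50 marks 50% less growth. TGI: concentration producing complete growth inhibition.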
# Experiments:
# Assay in all cases: NCI anticancer screen, dose series, 48 h
# IGROV1 ovarian = test system: IGROV1 ovarian
# MCF7 breast = test system: MCF7 breast
# SW-620 colon = test system: SW-620 colon
# SR leukemia = test system: SR leukemia
# NCI-H522 lung = test system: NCI-H522 lung
# DU-145 prostate = test system: DU-145 prostate
# MDA-MB-231 breast = test system: MDA-MB-231 breast
# NCI-H226 lung = test system: NCI-H226 lung
# SN12C renal = test system: SN12C renal
# HCT-15 colon = test system: HCT-15 colon
# BT-549 breast = test system: BT-549 breast
# SF-268 CNS = test system: SF-268 CNS
# OVCAR-8 ovarian = test system: OVCAR-8 ovarian
# OVCAR-4 ovarian = test system: OVCAR-4 ovarian
# T-47D breast = test system: T-47D breast
# HCT-116 colon = test system: HCT-116 colon
# U251 CNS = test system: U251 CNS
# OVCAR-5 ovarian = test system: OVCAR-5 ovarian
# SK-OV-3 ovarian = test system: SK-OV-3 ovarian
# SNB-75 CNS = test system: SNB-75 CNS
# CAKI-1 renal = test system: CAKI-1 renal
# HOP-92 NSCLC = test system: HOP-92 NSCLC
# A498 renal = test system: A498 renal
# UO-31 renal = test system: UO-31 renal
# NCI/ADR-RES ovarian = test system: NCI/ADR-RES ovarian
# MDA-MB-468 breast = test system: MDA-MB-468 breast
# SNB-19 CNS = test system: SNB-19 CNS
# OVCAR-3 ovarian = test system: OVCAR-3 ovarian
# MALME-3M melanoma = test system: MALME-3M melanoma
# HS 578T breast = test system: HS 578T breast
# SF-539 CNS = test system: SF-539 CNS
# ACHN renal = test system: ACHN renal
# TK-10 renal = test system: TK-10 renal
# A549 NSCLC = test system: A549 NSCLC
# UACC-62 melanoma = test system: UACC-62 melanoma
# CCRF-CEM leukemia = test system: CCRF-CEM leukemia
# RXF 393 renal = test system: RXF 393 renal
# EKVX NSCLC = test system: EKVX NSCLC
# COLO 205 colon = test system: COLO 205 colon
# K-562 leukemia = test system: K-562 leukemia
# RPMI-8226 leukemia = test system: RPMI-8226 leukemia
# SK-MEL-5 melanoma = test system: SK-MEL-5 melanoma
# LOX IMVI melanoma = test system: LOX IMVI melanoma
# MOLT-4 leukemia = test system: MOLT-4 leukemia
# HT29 colon = test system: HT29 colon
# SK-MEL-2 melanoma = test system: SK-MEL-2 melanoma
# NCI-H23 lung = test system: NCI-H23 lung
# PC-3 prostate = test system: PC-3 prostate
# HL-60(TB) leukemia = test system: HL-60(TB) leukemia
# MDA-MB-435 = test system: MDA-MB-435
# 786-0 renal = test system: 786-0 renal
# HCC-2998 colon = test system: HCC-2998 colon
# HOP-62 NSCLC = test system: HOP-62 NSCLC
# SF-295 CNS = test system: SF-295 CNS
# SK-MEL-28 melanoma = test system: SK-MEL-28 melanoma
# NCI-H460 lung = test system: NCI-H460 lung
# M14 melanoma = test system: M14 melanoma
# UACC-257 melanoma = test system: UACC-257 melanoma
# KM12 colon = test system: KM12 colon
compound,measurement,setting,value
Cc1ccc(-c2nc(C#N)c(S(=O)(=O)N3CCN(S(C)(=O)=O)CC3)o2)cc1,GI50,IGROV1 ovarian,> 100 µM
same,TGI,IGROV1 ovarian,> 100 µM
same,GI50,MCF7 breast,3.74 µM
same,TGI,MCF7 breast,> 100 µM
same,GI50,SW-620 colon,2.48 µM
same,TGI,SW-620 colon,6.92 µM
same,GI50,SR leukemia,3.16 µM
same,TGI,SR leukemia,26 µM
same,GI50,NCI-H522 lung,2.17 µM
same,TGI,NCI-H522 lung,5.94 µM
same,GI50,DU-145 prostate,> 100 µM
same,TGI,DU-145 prostate,> 100 µM
same,GI50,MDA-MB-231 breast,> 100 µM
same,TGI,MDA-MB-231 breast,> 100 µM
same,GI50,NCI-H226 lung,> 100 µM
same,TGI,NCI-H226 lung,> 100 µM
same,GI50,SN12C renal,75.1 µM
same,TGI,SN12C renal,> 100 µM
same,GI50,HCT-15 colon,3.81 µM
same,TGI,HCT-15 colon,62.5 µM
same,GI50,BT-549 breast,47.4 µM
same,TGI,BT-549 breast,> 100 µM
same,GI50,SF-268 CNS,> 100 µM
same,TGI,SF-268 CNS,> 100 µM
same,GI50,OVCAR-8 ovarian,23.2 µM
same,TGI,OVCAR-8 ovarian,> 100 µM
same,GI50,OVCAR-4 ovarian,> 100 µM
same,TGI,OVCAR-4 ovarian,> 100 µM
same,GI50,T-47D breast,19.2 µM
same,TGI,T-47D breast,> 100 µM
same,GI50,HCT-116 colon,11.8 µM
same,TGI,HCT-116 colon,34.7 µM
same,GI50,U251 CNS,51.7 µM
same,TGI,U251 CNS,> 100 µM
same,GI50,OVCAR-5 ovarian,> 100 µM
same,TGI,OVCAR-5 ovarian,> 100 µM
same,GI50,SK-OV-3 ovarian,> 100 µM
same,TGI,SK-OV-3 ovarian,> 100 µM
same,GI50,SNB-75 CNS,> 100 µM
same,TGI,SNB-75 CNS,> 100 µM
same,GI50,CAKI-1 renal,> 100 µM
same,TGI,CAKI-1 renal,> 100 µM
same,GI50,HOP-92 NSCLC,> 100 µM
same,TGI,HOP-92 NSCLC,> 100 µM
same,GI50,A498 renal,> 100 µM
same,TGI,A498 renal,> 100 µM
same,GI50,UO-31 renal,> 100 µM
same,TGI,UO-31 renal,> 100 µM
same,GI50,NCI/ADR-RES ovarian,28 µM
same,TGI,NCI/ADR-RES ovarian,> 100 µM
same,GI50,MDA-MB-468 breast,28.2 µM
same,TGI,MDA-MB-468 breast,> 100 µM
same,GI50,SNB-19 CNS,> 100 µM
same,TGI,SNB-19 CNS,> 100 µM
same,GI50,OVCAR-3 ovarian,24.6 µM
same,TGI,OVCAR-3 ovarian,> 100 µM
same,GI50,MALME-3M melanoma,> 100 µM
same,TGI,MALME-3M melanoma,> 100 µM
same,GI50,HS 578T breast,> 100 µM
same,TGI,HS 578T breast,> 100 µM
same,GI50,SF-539 CNS,73.3 µM
same,TGI,SF-539 CNS,> 100 µM
same,GI50,ACHN renal,44.1 µM
same,TGI,ACHN renal,> 100 µM
same,GI50,TK-10 renal,> 100 µM
same,TGI,TK-10 renal,> 100 µM
same,GI50,A549 NSCLC,> 100 µM
same,TGI,A549 NSCLC,> 100 µM
same,GI50,UACC-62 melanoma,> 100 µM
same,TGI,UACC-62 melanoma,> 100 µM
same,GI50,CCRF-CEM leukemia,3.83 µM
same,TGI,CCRF-CEM leukemia,> 100 µM
same,GI50,RXF 393 renal,75.6 µM
same,TGI,RXF 393 renal,> 100 µM
same,GI50,EKVX NSCLC,> 100 µM
same,TGI,EKVX NSCLC,> 100 µM
same,GI50,COLO 205 colon,> 100 µM
same,TGI,COLO 205 colon,> 100 µM
same,GI50,K-562 leukemia,6.66 µM
same,TGI,K-562 leukemia,> 100 µM
same,GI50,RPMI-8226 leukemia,26.7 µM
same,TGI,RPMI-8226 leukemia,> 100 µM
same,GI50,SK-MEL-5 melanoma,> 100 µM
same,TGI,SK-MEL-5 melanoma,> 100 µM
same,GI50,LOX IMVI melanoma,2.97 µM
same,TGI,LOX IMVI melanoma,16 µM
same,GI50,MOLT-4 leukemia,7.61 µM
same,TGI,MOLT-4 leukemia,37 µM
same,GI50,HT29 colon,37.1 µM
same,TGI,HT29 colon,> 100 µM
same,GI50,SK-MEL-2 melanoma,> 100 µM
same,TGI,SK-MEL-2 melanoma,> 100 µM
same,GI50,NCI-H23 lung,19.3 µM
same,TGI,NCI-H23 lung,> 100 µM
same,GI50,PC-3 prostate,> 100 µM
same,TGI,PC-3 prostate,> 100 µM
same,GI50,HL-60(TB) leukemia,65.2 µM
same,TGI,HL-60(TB) leukemia,> 100 µM
same,GI50,MDA-MB-435,37.8 µM
same,TGI,MDA-MB-435,> 100 µM
same,GI50,786-0 renal,64 µM
same,TGI,786-0 renal,> 100 µM
same,GI50,HCC-2998 colon,53.8 µM
same,TGI,HCC-2998 colon,> 100 µM
same,GI50,HOP-62 NSCLC,> 100 µM
same,TGI,HOP-62 NSCLC,> 100 µM
same,GI50,SF-295 CNS,61.7 µM
same,TGI,SF-295 CNS,> 100 µM
same,GI50,SK-MEL-28 melanoma,> 100 µM
same,TGI,SK-MEL-28 melanoma,> 100 µM
same,GI50,NCI-H460 lung,> 100 µM
same,TGI,NCI-H460 lung,> 100 µM
same,GI50,M14 melanoma,26.3 µM
same,TGI,M14 melanoma,> 100 µM
same,GI50,UACC-257 melanoma,60.4 µM
same,TGI,UACC-257 melanoma,> 100 µM
same,GI50,KM12 colon,> 100 µM
same,TGI,KM12 colon,> 100 µM
